Results: PubChem BioAssay AID504574 (Southern Research Specialized Biocontainment Screening …, 2011)

tested on: cytotoxicity counter-screen, cell viability, 2% serum; test: host cell cytotoxicity, X4 fusion assay cells, dose response, cytotoxicity control for HIV-1 antiviral lead project, CXCR4-tropic fusion assay, 2% serum, set 2 (AID 504574)

| SMILES | CC50 [µM] |
| --- | --- |
| Cc1c2c(=O)n(-c3nc4ccccc4s3)nc-2cc(O)n1Cc1ccccc1Cl | 6.06 |
| COc1ccc(CCn2c(O)cc3nn(-c4nc5ccccc5s4)c(=O)c-3c2C)cc1 | 23.4 |
| Cc1c2c(=O)n(-c3nc4ccccc4s3)nc-2cc(O)n1Cc1ccc(F)cc1 | 4.88 |
| COc1ccc(Cn2c(O)cc3nn(-c4nc5ccccc5s4)c(=O)c-3c2C)cc1 | 5.52 |
| Cc1c2c(=O)n(-c3nc4ccccc4s3)nc-2cc(O)n1Cc1ccncc1 | 9.26 |
| Cc1c2c(=O)n(-c3nc4ccccc4s3)nc-2cc(O)n1C1CC1 | 3.82 |
| Cc1c2c(=O)n(-c3nc4ccccc4s3)nc-2cc(O)n1CCC(C)C | 18.6 |
| Cc1c2c(=O)n(-c3nc4ccccc4s3)nc-2cc(O)n1Cc1ccccc1 | 8.94 |
| COc1ccccc1Cn1c(O)cc2nn(-c3nc4ccccc4s3)c(=O)c-2c1C | 15.1 |
| Cc1c2c(=O)n(-c3nc4ccccc4s3)nc-2cc(O)n1CCc1ccc(O)cc1 | 3.34 |
| Cc1c2c(=O)n(-c3nc4ccccc4s3)nc-2cc(O)n1CCc1cccs1 | 16 |
| Cc1c2c(=O)n(-c3nc4ccccc4s3)nc-2cc(O)n1Cc1cccnc1 | 7.86 |
| Cc1c2c(=O)n(-c3nc4ccccc4s3)nc-2cc(O)n1Cc1cccs1 | 5.51 |
